Inhibition and IC50 data for ten molecules are collected here from patent publication EP2910557A1, “Enantiopure tetrasubstituted pyrrolidines as scaffolds for proteasome inhibitors and medicinal applications thereof” (Ikerchem, S.L., priority 2014, dated 2015).

The term inhibition denotes how much of the control response was suppressed. The term pIC50 denotes the negative decadic logarithm of the IC50, by convention in mol/L. The low end stands for a large IC50, the high end for a small IC50.

The assay has as its target T1, Human erythrocyte 20S proteasome (Homo sapiens, UniProt P28074).
T1 construct: Enzyme: Human erythrocyte 20S proteasome; from tissue; host or cells: human erythrocytes
Description: In vitro enzymatic assay of proteasome inhibitory activity (Suc-Leu-Leu-Val-Tyr-AMC substrate). The assay is classed as biochemical. The note with it: for inhibition at 0.5 µM: Concentration 500 nM; for pIC50: human erythrocyte 20S proteasome, 10 µM Suc-Leu-Leu-Val-Tyr-AMC, 37°C; for inhibition at 1 µM: Concentration 1000 nM. The protocol:
Example 20: In vitro enzymatic assay of proteasome inhibitory activity.
Substrate: Suc-Leu-Leu-Val-Tyr-AMC
Assay buffer: 250 mM HEPES, pH 7.5, 0.5 mM EDTA, 0.03% SDS, 0.05% Igepal CA-630.
Enzyme: Human erythrocyte 20S proteasome
In vitro proteasome inhibitory activity of the compounds of the invention is evaluated by spectrofluorimetric quantitation of AMC. Stock solutions of compounds of the invention are prepared in dimethyl sulphoxide (DMSO). Test compound and/or vehicle is preincubated with […] enzyme (human erythrocyte 20S proteasome) in modified HEPES buffer pH 7.5 and 1% final concentration of DMSO for 15 minutes at 37°C. The reaction is initiated by addition of 10 µM Suc-Leu-Leu-Val-Tyr-AMC for another 30 minutes incubation period at 37°C. Determination of the release of AMC is read spectrophotometrically (excitation, 380 nm; emission, 460 nm). IC50 values are determined by a non-linear, least squares regression analysis using MathlQTM (ID Business Solutions Ltd., UK).

pIC50: −log10 of the molar value.

As to `CC(C)C[C@H](NC(=O)[C@@H]1N[C@H](c2cccc3ccccc23)[C@H]([N+](=O)[O-])[C@H]1c1ccccc1)B(O)O` [Example 16, (R)-3-methyl-1-((2R,3S,4R,5R)-5-(naphthalen-1-yl)-4-nitro-3-phenylpyrrolidine-2-carboxamido)butylboronic acid], the inhibition at 0.5 µM worked out at 33%. In turn, `CC(C)C[C@H](NC(=O)[C@@H]1N[C@H](c2ccccc2)[C@@H]([N+](=O)[O-])[C@@H]1c1ccc2ccccc2c1)B(O)O` [Example 9, (R)-3-methyl-1-((2R,3R,4S,5R)-3-(naphthalen-2-yl)-4-nitro-5-phenylpyrrolidine-2-carboxamido)butylboronic acid] had an inhibition at 0.5 µM of 69% and a pIC50 of 6.82. As to `CC(C)C[C@H](NC(=O)[C@H]1N[C@@H](c2ccccc2)[C@H]([N+](=O)[O-])[C@H]1c1ccccc1)B(O)O` [Example 2, (R)-3-methyl-1-((2S,3S,4R,5S)-4-nitro-3,5-diphenylpyrrolidine-2-carboxamido)butylboronic acid], testing at 1 µM gave an inhibition of 70% and the pIC50 is 6.37.

`CC(C)C[C@H](NC(=O)[C@@H]1N[C@H](c2cccnc2)[C@@H]([N+](=O)[O-])[C@@H]1c1ccccc1)B(O)O` [Example 15, (R)-3-methyl-1-((2R,3R,4S,5R)-4-nitro-3-phenyl-5-(pyridin-3-yl)pyrrolidine-2-carboxamido)butylboronic acid] gave an inhibition at 0.5 µM of 72% and a pIC50 of 7.00. The molecule `Cc1ccc([C@H]2[C@H]([N+](=O)[O-])[C@@H](c3ccccc3)N[C@H]2C(=O)N[C@@H](CC(C)C)B(O)O)cc1` [Example 5, (R)-3-methyl-1-((2R,3R,4S,5R)-4-nitro-5-phenyl-3-p-tolylpyrrolidine-2-carboxamido)butylboronic acid] had an inhibition at 0.5 µM of 77% and a pIC50 of 7.11.

As for `CC(C)C[C@H](NC(=O)[C@@H]1N[C@H](c2cccc3ccccc23)[C@@H]([N+](=O)[O-])[C@@H]1c1ccccc1)B(O)O` [Example 13, (R)-3-methyl-1-((2R,3R,4S,5R)-5-(naphthalen-1-yl)-4-nitro-3-phenylpyrrolidine-2-carboxamido)butylboronic acid], the pIC50 is 7.41. The molecule also showed an inhibition at 0.05 µM (Concentration 50 nM) of 54%.

In turn, `CC(C)C[C@H](NC(=O)[C@@H]1N[C@H](c2ccccc2)[C@@H]2C(=O)N(C)C(=O)[C@@H]21)B(O)O` [Example 19, (R)-3-methyl-1-((1R,3S,3aR,6aS)-5-methyl-4,6-dioxo-3-phenyloctahydropyrrolo[3,4-c]pyrrole-1-carboxamido)butylboronic acid] gave a pIC50 of 7.34. For the same molecule, the inhibition at 0.1 µM (Concentration 100 nM) was found to be 68%. Molecule `CC(C)C[C@H](NC(=O)[C@@H]1N[C@H](c2ccccc2)[C@@H]([N+](=O)[O-])[C@@H]1c1ccc([N+](=O)[O-])cc1)B(O)O` [Example 8, (R)-3-methyl-1-((2R,3R,4S,5R)-4-nitro-3-(4-nitrophenyl)-5-phenylpyrrolidine-2-carboxamido)butylboronic acid] showed an inhibition at 0.5 µM of 69% and a pIC50 of 6.82. As to `CC(C)C[C@H](NC(=O)[C@H]1N[C@@H](c2ccccc2)[C@H]2C(=O)N(C)C(=O)[C@H]21)B(O)O` [Example 18, (R)-3-methyl-1-((1S,3R,3aS,6aR)-5-methyl-4,6-dioxo-3-phenyloctahydropyrrolo[3,4-c]pyrrole-1-carboxamido)butylboronic acid], 1 µM produced 53% inhibition and the negative logarithm of the IC50 (pIC50) is 6.04. `COC(=O)[C@H]1[C@H](C(=O)OC)[C@H](c2ccccc2)N[C@@H]1C(=O)N[C@@H](CC(C)C)B(O)O` [Example 17, (R)-1-((2S,3S,4S,5R)-3,4-bis(methoxycarbonyl)-5-phenylpyrrolidine-2-carboxamido)-3-methylbutylboronic acid] gave an inhibition at 0.5 µM of 20%.
